From PMC8155176, “Reversible modulation of circadian time with chronophotopharmacology” (Nature Communications, 2021)
pIC50: −log10 of the molar value. “Also recorded” adds a separate entry of the source. Read-outs that look alike come from different tables or passages of the source.

Columns and labels:
CKIα = biological target: T1, CKIα (Homo sapiens, UniProt P48729); assay: In vitro kinase assay (Kinase Glo), CKIα; assay type: biochemical; conditions: for light dependence of CKIα inhibition (in words): UV light 365 nm vs dark; for fold difference in CKIα inhibition between dark and UV-irradiated sample: trans vs cis-enriched (365 nm), 5 is stronger under light, the others weaker
T1 construct: purchased Invitrogen PV3850
Method: A stock solution of 7.4 mM in DMSO was prepared and thermally adapted by heating to c.a. 100 °C for 1 min. Two series of eight samples were prepared with consecutive three-time dilutions from the stock solution. One of the series (‘dark’ samples) was prepared in dark Eppendorf tube, the other series (‘light’ samples) was pre-irradiated with UV light (365 nm, UV lamp Spectroline, ENB-280/FE, 1 × 8 Watt) for 45 min. For compound 9, 1 mM solution in DMSO was thermally adapted by heating to 80 °C for 2 min and split into two vials. One vial was kept in the dark and the other was irradiated with green light (530 nm, 3x Nichia NCSG219B-V1, 3 × 550 mW, Sahlmann Photochemical Solutions) for 60 min. Both dark-kept and irradiated samples were subjected to 8-point 3-fold dilutions. All the solutions were applied to the well plate under a red lamp in the dark room in order to prevent ambient-light-induced photo-isomerization.
The assays were performed on a white, solid-bottom 384-well plates. The total volume for the reaction is 10.5 µl. Firstly, a solution of CKI and peptide was added to the bottom of the well (9 µL). Next, a corresponding solution of the compound (0.5 μL, final 5% DMSO) followed by 50 μM ATP solution (1 μL) were pipetted into the upper corners of each well. The enzymatic reaction was started by spinning down the plate (1800 x g, 2 min).
By employing this method, all reactions were started at the same time, minimizing variance between different samples. Incubation for 3 h at 30 °C or 2 h at 37 °C allowed for the enzymatic phosphorylation of the substrate peptide. As the reaction started, the wells with ‘light’ samples were irradiated with UV light or kept in dark in case of experiment with compound 9. ‘Dark’ (0 min pre-irradiation) wells were covered with an aluminum sticker from the beginning. After the incubation, 10 μL Kinase Glo® (Promega) was applied into the wells and the luminescent signal was recorded by a plate reader (BioTek Synergy H1 or Cytation).
The total volume for the reaction was 10.5 µl. The reaction mixture contained the following: for CKIδ, 4 ng/µl CKIδ (14-520, Eurofins), 50 µM peptide substrate RKKKAEpSVASLTSQCSYSS corresponding to human PER2 Lys659-Ser674, and CKI buffer (40 mM Tris, 10 mM MgCl2, 0.5 mM DTT, 0.1 mg/ml BSA, pH7.4); for CKIα, 1 ng/µl CKIα (PV3850, Invitrogen), 50 µM CKI peptide substrate (60547-1, Anaspec), and CKI buffer.
The data obtained from the in vitro kinase assay was analyzed using GraphPad software, in which the luminescence outcome is normalized. Normalization is done using a luminescent output of the control that contained high concentration of longdaysin (370 µM) as 100% inhibition and DMSO for 0% inhibition. In all graphs, a dose-response fit was used to obtain

U2OS cells = assay: Circadian period assay in Bmal1-dLuc U2OS reporter cells; assay type: cell-based, human
Method: Next, we tested if the observed light-dependent CKIα inhibition translates into photomodulation of the circadian period in human U2OS cells (Fig. 2d). The Bmal1-dLuc reporter cell line contains the coding sequence of destabilized luciferase driven by the Bmal1 gene promoter sequence. The cell culture medium for luminescence recording includes a high concentration of luciferin (0.2 mM), a substrate for luciferase, which strongly absorbs UV light (Supplementary Fig. 30). […] As the circadian period change is directly correlated with the potency and concentration of the inhibitor[10], the cells were treated with photoswitchable modulators using a broad range of concentrations.
In comparison to the kinase assay, the direct use of UV light for preventing a thermal back-isomerization of the cis-isomer was not feasible due to the cell-damaging effect and the presence of luciferin in the medium. Therefore, the modulators were kept in the dark or photo-isomerized in DMSO prior to the addition, without further irradiation during the circadian assay. All three modulators lengthened the period in the U2OS cells both in the dark and upon irradiation (Fig. 2d). […] Altogether, based on the efficient generation of the cis-isomer under irradiation, retained potency and promising light-modulation of CKIα inhibition, the meta-substituted modulator 4 was identified as representing lead substitution pattern for further investigation.
Stable U2OS reporter cells harboring Bmal1-dLuc reporter were suspended in phenol red-free culture medium [DMEM (D2902, Sigma) supplemented with 10% fetal bovine serum, 3.5 mg/mL D-glucose, 3.7 mg/mL sodium bicarbonate, 0.29 mg/mL L-glutamine, 100 units/mL penicillin, and 100 µg/mL streptomycin] and plated onto a white, solid-bottom 384-well plates at 30 µL (3000 cells) per well. After 2 days, 40 µL of phenol red-free explant medium [DMEM (D2902, Sigma) supplemented with 2% B27 (Gibco), 10 mM HEPES, 3.5 mg/mL D-glucose, 0.38 mg/mL sodium bicarbonate, 0.29 mg/mL L-glutamine, 100 units/mL penicillin, 100 µg/mL streptomycin, and 0.2 mM luciferin; pH 7.2] was dispensed into each well, followed by the application of 0.5 μL of compounds (dissolved in DMSO; final 0.7% DMSO; pre-irradiated with UV for 60 min, white LED for 10 min, and/or green LED for 60 min when indicated). The plate was covered with an optically clear film, and subjected to irradiation with 530 nm LED lamp (3 × 550 mW, λmax = 530 nm, FWHM 36 nm, Sahlmann Photochemical Solutions) or 400 nm LED lamp (3 × 1000 mW, λmax = 400 nm, FWHM 11.9 nm, Sahlmann Photochemical Solutions) from 12 cm distance for 30 min. Compound handling and irradiation were conducted in a dark room under red lamp illumination. Luminescence was recorded every 100 min in a microplate reader, Infinite M200Pro (Tecan). For the phase control experiments, cellular light irradiation was performed in a dark 32 °C room and luminescence was recorded in a microplate reader Synergy H1 (BioTek) placed in the same room, to avoid possible effect of transient temperature change on the phase. Circadian period and phase were determined from luminescence rhythms by a curve fitting program MultiCycle (Actimetrics). Data from the first day was excluded from analysis, because of transient changes in luminescence upon medium change. Statistical significance was evaluated using two-way analysis of variance (ANOVA) followed by a Sidak’s multiple comparisons test or one-way ANOVA followed by a Tukey’s multiple comparisons test using Prism software (GraphPad Software).

[1] = Chemical stability under dark and irradiation conditions followed by LCMS; assay type: physicochemical; conditions: 40 µM in kinase assay buffer or cell culture medium, dark, 365 nm 3 h, 400 nm 30 min
Method: LCMS traces of stability studies
Supplementary Figure 8. Chemical stability of compound 3 under dark and irradiation conditions followed by LCMS. All the samples were prepared as 40 µM solution in buffer or cell culture medium. ‘Buffer’ and ‘medium’ samples were injected immediately upon dissolving compound 3, ‘buffer_3h_dark’ was injected after 3 h of keeping the solution in dark, ‘buffer_3h_365nm’ after irradiation of the sample for 3 h with UV light in kinase assay buffer, and ‘medium_30min_400nm’ after 30 min of irradiation with 400 nm in cell culture medium. The trans-isomer was followed at the retention time of 10.41-10.47 min and the cis-isomer at the retention time of 8.84-8.90 min. Mass spectra of both isomers in different […]
(1 picture or pasted object on this page, not shown here)

[2] = Solubility test in kinase assay buffer and cell culture medium; assay type: physicochemical
Method: Solubility studies were performed in kinase assay buffer and cell culture medium. Half of the solutions of the compounds in DMSO was thermally adapted (‘Dark’) and the other half was irradiated for 1 h with UV light (λmax = 365 nm, ‘Light’) green light in case of 9 (λmax = 530 nm, ‘Light’). Solubility is indicated in the Supplementary Table 1. […]
precipitation were excluded from the dose-response curves in the enzymatic assay .
Supplementary Table 1. Solubility of the photos witchable compounds in the highest concentrations that were used in the enzymatic assay.
Kinase assay buffer Cell culture medium […]

[3] = irradiated with UV light (365 nm) before and during the assay, cis-enriched, read-out: CKIα IC50, light
[4] = thermally adapted trans-isomer kept in the dark, read-out: CKIα IC50, dark

T1 sequence (P48729 whole entry): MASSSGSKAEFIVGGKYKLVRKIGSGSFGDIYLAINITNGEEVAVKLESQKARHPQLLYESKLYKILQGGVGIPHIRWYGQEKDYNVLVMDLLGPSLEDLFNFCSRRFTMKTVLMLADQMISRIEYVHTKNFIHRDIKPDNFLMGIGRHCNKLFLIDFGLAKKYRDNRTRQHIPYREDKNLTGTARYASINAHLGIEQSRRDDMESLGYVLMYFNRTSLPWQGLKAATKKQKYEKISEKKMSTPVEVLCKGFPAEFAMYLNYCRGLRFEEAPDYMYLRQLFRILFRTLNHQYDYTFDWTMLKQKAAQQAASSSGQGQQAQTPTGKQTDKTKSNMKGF

| Structure (SMILES) | light dependence of CKIα inhibition (in words) (CKIα) | pIC50 (CKIα; [3]) | influence of green or violet light on the period change (U2OS cells; control experiment) | chemical stability (reduction or oxidation of the azo group) [1] | pIC50 (CKIα; [4]) | period lengthening in U2OS cells (U2OS cells; 24 μM) | light-modulation of period lengthening (U2OS cells; 24 μM, UV pre-irradiated vs dark) | solubility in aqueous media (in words) [2] | light-induced change of period lengthening (U2OS cells; 72 μM, UV pre-irradiated vs dark) | fold difference in CKIα inhibition between dark and UV-irradiated sample (CKIα) | effect of UV light irradiation on period lengthening (U2OS cells; UV (365 nm) pre-irradiated) | recovery of biological activity upon back-isomerization with white light (U2OS cells; UV light followed by white light) | period lengthening effect under dark conditions (U2OS cells; dark) | light-induced deactivation of period lengthening (U2OS cells; 3 μM, UV pre-irradiated vs dark) |
| --- | --- | --- | --- | --- | --- | --- | --- | --- | --- | --- | --- | --- | --- | --- |
| CC(C)n1cnc2c(NCc3cccc(C(F)(F)F)c3)ncnc21 [longdaysin, reference compound] | negligible effect of UV irradiation on the potency | 5.37 | negligible influence |  |  |  |  |  |  |  |  |  |  |  |
| CC(C)n1cnc2c(NCc3ccc(/N=N/c4ccccc4)cc3)ncnc21 [Compound 3] | no obvious light-dependent changes of CKIα inhibition | 5.35 |  | Products of reduction or oxidation were not observed | 5.44 | 4 h | no light-modulation |  |  |  |  |  |  |  |
| CC(C)n1cnc2c(NCc3ccccc3/N=N/c3ccccc3)ncnc21 [Compound 5] |  | 4.27 |  | Products of reduction or oxidation were not observed | 4.02 |  |  | solubility issues at high concentrations | weak activation |  |  |  |  |  |
| CC(C)n1cnc2c(NCc3cccc(/N=N/c4c(F)cccc4F)c3)ncnc21 [Compound 7] |  | 5.03 |  | Products of reduction or oxidation were not observed; also recorded: both chemical and photochemical stability | 5.62 |  |  |  |  | four times less potent | suppressed by UV light irradiation; also recorded: most pronounced period lengthening deactivation | partial recovery | strong period lengthening effect |  |
| COc1ccc(/N=N/c2cccc(CNc3ncnc4c3ncn4C(C)C)c2)cc1 [Compound 6] |  | 4.88 |  | Products of reduction or oxidation were not observed | 5.55 |  |  | increased solubility |  | 5 fold |  |  |  |  |
| CC(C)n1cnc2c(NCc3cccc(/N=N/c4ccccc4)c3)ncnc21 [Compound 4] | substantial light-induced inactivation | 5.07 |  | Products of reduction or oxidation were not observed | 5.72 |  |  |  |  | 4.5 fold |  |  |  | ca. 2 h |
